Results reported in patent US20260258473A1, “FLUORESCENT PROBE FOR DETECTION OF ENPP ACTIVITY” (THE UNIVERSITY OF TOKYO, priority 2019, published 2026).

Target: ENPP2 (Homo sapiens, UniProt Q13822)
Assay: Measurement of plasma sample using a plate reader (ENPP probe fluorescence with and without serum)
Assay type: biochemical
Settings: compound at 10 μmol/L, ENPP2 at 25 μg/mL, human serum diluted by 10 times vs no serum, multi-well plate, Tris-HCl pH 8.3
Method: First, compounds (4) was diluted to 10 μmol/L with an assay buffer. The assay buffer has the composition of Tris-HCl buffer solution (pH 8.3), magnesium chloride at 1.0 mmol/L and 0.5% CHAPS. Subsequently, ENPP2 at 25 μg/mL and human serum diluted by 10 times were added, and the mixture was dispensed into a multi-well plate. Subsequently, the fluorescence intensity was measured with a plate reader. […] On the other hand, as described above, the measurement method using a microdevice enabled the activity of ENPP to be adequately measured even in the presence of serum.

With `COc1cc(OC)c(S(=O)(=O)O)cc1-c1c2ccc(=O)cc-2oc2cc(OCOP(=O)(O)OCC3OC(n4cc(C)c(=O)[nH]c4=O)CC3O)ccc12` (stereo not shown) [Compound (4)] the “measured intensity of the activity of ENPP (fluorescence intensity)” value was “lower when serum was present than when serum was not present”.
